molecular target: T1, human IDO1 (Homo sapiens, UniProt P14902); assay: IDO inhibition assay in HEK293 cells stably expressing human IDO1 (kynurenine production, Ehrlich reagent, absorbance 490 nm); format: cell-based; conditions: 20 hours incubation with compound, 500 nM reference standard = 100% inhibition, read-out: IDO1 HEK Human IC50
T1 construct: expressed in transfected cells
In short: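 Kynurenine output of stably IDO1-transfected HEK293 cells was measured by absorbance at 490 nm after mixing supernatant with 0.2% Ehrlich reagent, following TCA stop (0.2% final, 50° C., 30 min). Cells were incubated 20 hours with compound. Inhibition was scaled between DMSO and 500 nM reference standard.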

T1 sequence (P14902 whole entry): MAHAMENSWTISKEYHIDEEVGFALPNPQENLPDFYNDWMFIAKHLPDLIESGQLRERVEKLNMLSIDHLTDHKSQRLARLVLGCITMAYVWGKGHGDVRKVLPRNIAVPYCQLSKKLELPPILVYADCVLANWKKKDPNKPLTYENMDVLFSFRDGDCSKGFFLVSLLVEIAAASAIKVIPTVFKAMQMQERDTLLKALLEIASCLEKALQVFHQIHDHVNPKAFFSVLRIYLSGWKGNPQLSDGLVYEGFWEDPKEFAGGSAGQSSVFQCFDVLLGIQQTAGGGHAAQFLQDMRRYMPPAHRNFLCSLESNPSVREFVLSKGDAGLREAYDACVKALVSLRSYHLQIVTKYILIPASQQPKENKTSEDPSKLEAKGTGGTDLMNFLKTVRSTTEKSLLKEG

IC50	SMILES
0.0085 µM	COc1cc(Nc2cc(-c3ccccc3-c3nnn[nH]3)nc(N(Cc3ccccc3)CC(C)C)c2)ccc1F [Example 190, 6-(2-(1H-tetrazol-5-yl)phenyl)-N2-benzyl-N4-(4-fluoro-3-methoxyphenyl)-N2-isobutylpyridine-2,4-diamine]
0.0264 µM	CC(C)CN(Cc1ccccc1)c1cc(Nc2cccc(C(F)F)c2)cc(-c2ccccc2-c2nnn[nH]2)n1 [Example 191, 6-(2-(1H-tetrazol-5-yl)phenyl)-N2-benzyl-N4-(3-(difluoromethyl)phenyl)-N2-isobutylpyridine-2,4-diamine]
0.0198 µM	CC(C)CN(Cc1ccccc1)c1cc(Nc2cccc(C#N)c2)cc(-c2ccccc2-c2nnn[nH]2)n1 [Example 192, 3-((2-(2-(1H-tetrazol-5-yl)phenyl)-6-(benzyl(isobutyl)amino)pyridin-4-yl)amino)benzonitrile]
0.0141 µM	CC(C)CN(Cc1ccccc1)c1cc(Nc2cccc(OC(F)(F)F)c2)cc(-c2ccccc2-c2nnn[nH]2)n1 [Example 193, 6-(2-(1H-tetrazol-5-yl)phenyl)-N2-benzyl-N2-isobutyl-N4-(3-(trifluoromethoxy)phenyl)pyridine-2,4-diamine]
0.23 µM	CC(C)CN(Cc1ccccc1)c1cc(Nc2ccccc2C#N)cc(-c2ccccc2-c2nnn[nH]2)n1 [Example 194, 2-((2-(2-(1H-tetrazol-5-yl)phenyl)-6-(benzyl(isobutyl)amino)pyridin-4-yl)amino)benzonitrile]
0.0198 µM	CC(C)CN(Cc1ccccc1)c1cc(Nc2cccc(C(F)F)n2)cc(-c2ccccc2-c2nnn[nH]2)n1 [Example 195, 6-(2-(1H-tetrazol-5-yl)phenyl)-N2-benzyl-N4-(6-(difluoromethyl)pyridin-2-yl)-N2-isobutylpyridine-2,4-diamine]
0.007 µM	COc1cccc(Nc2cc(-c3ccccc3-c3nnn[nH]3)nc(N(Cc3ccccc3)CC(C)C)c2)c1 [Example 196, 6-(2-(1H-tetrazol-5-yl)phenyl)-N2-benzyl-N2-isobutyl-N4-(3-methoxyphenyl)pyridine-2,4-diamine]
0.0058 µM	COc1cc(F)cc(Nc2cc(-c3ccccc3-c3nnn[nH]3)nc(N(Cc3ccccc3)CC(C)C)c2)c1 [Example 197, 6-(2-(1H-tetrazol-5-yl)phenyl)-N2-benzyl-N4-(3-fluoro-5-methoxyphenyl)-N2-isobutylpyridine-2,4-diamine]
2.96 µM	COc1ccc(Nc2cc(-c3ccccc3-c3nnn[nH]3)nc(N(Cc3ccccc3)CC(C)C)c2)cc1C(N)=O [Example 198, 5-((2-(2-(1H-tetrazol-5-yl)phenyl)-6-(benzyl(isobutyl)amino)pyridin-4-yl)amino)-2-methoxybenzamide]
0.239 µM	CCCN(Cc1ccccc1)c1cc(NC(=O)Cc2cncc(Br)c2)cc(-c2ccccc2-c2nn[nH]n2)n1 [Example 199, N-(2-(2-(2H-tetrazol-5-yl)phenyl)-6-(benzyl(propyl)amino)-yl)-2-(5-bromopyridin-3-yl)acetamide]
0.0824 µM	CCCN(Cc1ccccc1)c1cc(NC(=O)Cc2cccc3ccccc23)cc(-c2ccccc2-c2nn[nH]n2)n1 [Example 200, N-(2-(2-(2H-tetrazol-5-yl)phenyl)-6-(benzyl(propyl)amino)pyridin-4-yl)-2-(naphthalen-1-yl)acetamide]
0.0342 µM	CCCN(Cc1ccccc1)c1cc(NC(=O)Cc2ccc3ccccc3c2)cc(-c2ccccc2-c2nn[nH]n2)n1 [Example 201, N-(2-(2-(2H-tetrazol-5-yl)phenyl)-6-(benzyl(propyl)amino)pyridin-4-yl)-2-(naphthalen-2-yl)acetamide]
0.202 µM	CCCN(Cc1ccccc1)c1cc(NC(=O)Cc2ccccc2F)cc(-c2ccccc2-c2nn[nH]n2)n1 [Example 202, N-(2-(2-(2H-tetrazol-5-yl)phenyl)-6-(benzyl(propyl)amino)pyridin-4-yl)-2-(2-fluorophenyl)acetamide]
0.305 µM	CCCN(Cc1ccccc1)c1cc(NC(=O)Cc2ccccc2OC)cc(-c2ccccc2-c2nn[nH]n2)n1 [Example 203, N-(2-(2-(2H-tetrazol-5-yl)phenyl)-6-(benzyl(propyl)amino)pyridin-4-yl)-2-(2-methoxyphenyl)acetamide]
0.159 µM	CCCN(Cc1ccccc1)c1cc(NC(=O)Cc2cc(OC)ccc2OC)cc(-c2ccccc2-c2nn[nH]n2)n1 [Example 204, N-(2-(2-(2H-tetrazol-5-yl)phenyl)-6-(benzyl(propyl)amino)pyridin-4-yl)-2-(2,5-dimethoxyphenyl)acetamide]
0.0802 µM	CCCN(Cc1ccccc1)c1cc(NC(=O)Cc2ccccc2C(F)(F)F)cc(-c2ccccc2-c2nn[nH]n2)n1 [Example 205, N-(2-(2-(2H-tetrazol-5-yl)phenyl)-6-(benzyl(propyl)amino)pyridin-4-yl)-2-(2-(trifluoromethyl)phenyl)acetamide]
0.323 µM	CCCN(Cc1ccccc1)c1cc(NC(=O)Cc2cccs2)cc(-c2ccccc2-c2nn[nH]n2)n1 [Example 206, N-(2-(2-(2H-tetrazol-5-yl)phenyl)-6-(benzyl(propyl)amino)pyridin-4-yl)-2-(thiophen-2-yl)acetamide]
3.43 µM	CCCN(Cc1ccccc1)c1cc(NC(=O)Cc2c[nH]cn2)cc(-c2ccccc2-c2nn[nH]n2)n1 [Example 207, N-(2-(2-(2H-tetrazol-5-yl)phenyl)-6-(benzyl(propyl)amino)pyridin-4-yl)-2-(1H-imidazol-4-yl)acetamide]
0.544 µM	CCCN(Cc1ccccc1)c1cc(NC(=O)Cc2cc(OC)cc(OC)c2)cc(-c2ccccc2-c2nn[nH]n2)n1 [Example 208, N-(2-(2-(2H-tetrazol-5-yl)phenyl)-6-(benzyl(propyl)amino)pyridin-4-yl)-2-(3,5-dimethoxyphenyl)acetamide]
1.71 µM	CCCN(Cc1ccccc1)c1cc(NC(=O)Cc2cnccn2)cc(-c2ccccc2-c2nn[nH]n2)n1 [Example 210, N-(2-(2-(2H-tetrazol-5-yl)phenyl)-6-(benzyl(propyl)amino)pyridin-4-yl)-2-(pyrazin-2-yl)acetamide]
0.906 µM	CCCN(Cc1ccccc1)c1cc(NC(=O)Cc2csc(C)n2)cc(-c2ccccc2-c2nn[nH]n2)n1 [Example 211, N-(2-(2-(2H-tetrazol-5-yl)phenyl)-6-(benzyl(propyl)amino)pyridin-4-yl)-2-(2-methylthiazol-4-yl)acetamide]
0.224 µM	CCCN(Cc1ccccc1)c1cc(NC(=O)C(F)c2ccccc2)cc(-c2ccccc2-c2nn[nH]n2)n1 (stereo not drawn) [Example 212, N-(2-(2-(2H-tetrazol-5-yl)phenyl)-6-(benzyl(propyl)amino)pyridin-4-yl)-2-fluoro-2-phenylacetamide]
0.651 µM	CCCN(Cc1ccccc1)c1cc(NC(=O)Cc2c(C)noc2C)cc(-c2ccccc2-c2nn[nH]n2)n1 [Example 213, N-(2-(2-(2H-tetrazol-5-yl)phenyl)-6-(benzyl(propyl)amino)pyridin-4-yl)-2-(3,5-dimethylisoxazol-4-yl)acetamide]
0.0768 µM	CCCN(Cc1ccccc1)c1cc(NC(=O)Cc2csc3ccccc23)cc(-c2ccccc2-c2nn[nH]n2)n1 [Example 216, N-(2-(2-(2H-tetrazol-5-yl)phenyl)-6-(benzyl(propyl)amino)pyridin-4-yl)-2-(benzo[b]thiophen-3-yl)acetamide]

From patent US12059420B2 (BRISTOL-MYERS SQUIBB COMPANY, priority 2018, dated 2024)
